# Literature values, collected in US20110123642A1 (priority 2008, published 2011).
Compound,pKa,pKa^1,pKa^2,pKa^3,pKa^4
"O=C(O)CN(CCN(CC(=O)O)CC(=O)O)CC(=O)O [EDTA, reference compound]",10.2,,,,
"O=C([O-])CC[C@@H](C(=O)[O-])N(CC(=O)[O-])CC(=O)[O-].[Na+].[Na+].[Na+].[Na+] [GLDA, L-glutamic acid-N,N-diacetic acid, tetrasodium salt]",9.4,9.4,5.0,3.5,2.6
"O=C(O)CN(CC(=O)O)CC(=O)O [NTA, reference compound]",9.7,,,,
